Laboratory results reported in PMC4457528, “Identification of Novel Small Molecule Inhibitors of Oncogenic RET Kinase” (PLoS ONE, 2015).
Like-named read-outs stand apart in the source and are kept apart here.

What was measured:
Assay in all cases: KinomeScan kinase panel, single concentration 10 µM
Assay type in all cases: binding
KinomeScan kinase panel [1] = molecular target: T1, KinomeScan kinase panel (Homo sapiens, UniProt P00519, M351T); settings: 10 µM, read-out: score (%)
T1 construct: purchased DiscoveRx (KinomeScan)

KinomeScan kinase panel [2] = molecular target: T2, KinomeScan kinase panel (Homo sapiens, UniProt O15530); settings: PDPK1, 10 µM; read-out: score (%)
T2 construct: purchased DiscoveRx (KinomeScan)
T2 sequence (O15530 1-556): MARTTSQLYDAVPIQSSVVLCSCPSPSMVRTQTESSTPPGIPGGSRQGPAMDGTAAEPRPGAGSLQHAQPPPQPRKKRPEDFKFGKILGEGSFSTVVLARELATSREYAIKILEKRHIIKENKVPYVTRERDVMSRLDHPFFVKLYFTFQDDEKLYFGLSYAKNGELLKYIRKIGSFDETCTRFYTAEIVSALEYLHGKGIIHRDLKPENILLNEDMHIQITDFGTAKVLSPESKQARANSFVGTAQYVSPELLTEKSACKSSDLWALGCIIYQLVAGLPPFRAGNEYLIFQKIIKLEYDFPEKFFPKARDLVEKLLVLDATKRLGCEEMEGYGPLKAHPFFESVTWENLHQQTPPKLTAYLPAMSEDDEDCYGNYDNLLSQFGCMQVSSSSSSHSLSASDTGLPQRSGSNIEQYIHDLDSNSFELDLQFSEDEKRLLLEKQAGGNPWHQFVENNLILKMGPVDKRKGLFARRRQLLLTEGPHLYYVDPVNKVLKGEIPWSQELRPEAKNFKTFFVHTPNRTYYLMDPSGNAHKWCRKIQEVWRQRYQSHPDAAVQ

KinomeScan kinase panel [3] = molecular target: T3, KinomeScan kinase panel (Homo sapiens, UniProt Q96RR4); settings: CAMKK2, 10 µM; read-out: score (%)
T3 construct: purchased DiscoveRx (KinomeScan)

KinomeScan kinase panel [4] = molecular target: T4, KinomeScan kinase panel (Homo sapiens, UniProt P49759); settings: CLK1, 10 µM; read-out: score (%)
T4 construct: purchased DiscoveRx (KinomeScan)

KinomeScan kinase panel [5] = molecular target: T5, KinomeScan kinase panel (Homo sapiens, UniProt Q8NEV4); settings: MYO3A, 10 µM; read-out: score (%)
T5 construct: purchased DiscoveRx (KinomeScan)

KinomeScan kinase panel [6] = molecular target: T6, KinomeScan kinase panel (Homo sapiens, UniProt Q9HC98); settings: NEK6, 10 µM; read-out: score (%)
T6 construct: purchased DiscoveRx (KinomeScan)

KinomeScan kinase panel [7] = molecular target: T7, KinomeScan kinase panel (Homo sapiens, UniProt Q8TD19); settings: NEK9, 10 µM; read-out: score (%)
T7 construct: purchased DiscoveRx (KinomeScan)
T7 sequence (Q8TD19 1-979): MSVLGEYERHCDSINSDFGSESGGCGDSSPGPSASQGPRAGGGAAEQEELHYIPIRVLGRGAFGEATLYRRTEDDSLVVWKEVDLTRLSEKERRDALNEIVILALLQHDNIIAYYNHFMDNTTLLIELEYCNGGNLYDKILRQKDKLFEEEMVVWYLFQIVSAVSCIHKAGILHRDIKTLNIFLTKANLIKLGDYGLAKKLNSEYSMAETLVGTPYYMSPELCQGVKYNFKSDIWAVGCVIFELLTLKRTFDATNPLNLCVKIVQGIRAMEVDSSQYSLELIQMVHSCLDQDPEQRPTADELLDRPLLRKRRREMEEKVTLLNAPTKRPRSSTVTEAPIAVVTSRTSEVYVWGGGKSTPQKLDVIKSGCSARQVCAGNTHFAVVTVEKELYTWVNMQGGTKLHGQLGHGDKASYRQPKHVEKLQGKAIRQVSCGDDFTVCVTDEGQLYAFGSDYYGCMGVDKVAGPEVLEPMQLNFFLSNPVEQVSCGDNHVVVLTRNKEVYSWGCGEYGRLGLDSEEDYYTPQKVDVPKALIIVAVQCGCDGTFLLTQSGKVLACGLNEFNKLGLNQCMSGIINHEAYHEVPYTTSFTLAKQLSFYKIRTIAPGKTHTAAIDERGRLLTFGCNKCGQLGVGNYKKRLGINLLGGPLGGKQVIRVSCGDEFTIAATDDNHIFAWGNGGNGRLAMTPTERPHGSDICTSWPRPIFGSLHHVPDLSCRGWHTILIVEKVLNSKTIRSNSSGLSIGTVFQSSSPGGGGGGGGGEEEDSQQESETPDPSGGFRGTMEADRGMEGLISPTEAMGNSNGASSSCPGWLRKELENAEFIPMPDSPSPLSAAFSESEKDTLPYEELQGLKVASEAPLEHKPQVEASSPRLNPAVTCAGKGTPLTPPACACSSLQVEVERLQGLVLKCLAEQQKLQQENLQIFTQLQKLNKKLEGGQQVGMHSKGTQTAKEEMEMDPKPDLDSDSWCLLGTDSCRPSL

KinomeScan kinase panel [8] = molecular target: T8, KinomeScan kinase panel (Homo sapiens, UniProt P46734); settings: MEK3, 10 µM; read-out: score (%)
T8 construct: purchased DiscoveRx (KinomeScan)
T8 sequence (P46734 1-347): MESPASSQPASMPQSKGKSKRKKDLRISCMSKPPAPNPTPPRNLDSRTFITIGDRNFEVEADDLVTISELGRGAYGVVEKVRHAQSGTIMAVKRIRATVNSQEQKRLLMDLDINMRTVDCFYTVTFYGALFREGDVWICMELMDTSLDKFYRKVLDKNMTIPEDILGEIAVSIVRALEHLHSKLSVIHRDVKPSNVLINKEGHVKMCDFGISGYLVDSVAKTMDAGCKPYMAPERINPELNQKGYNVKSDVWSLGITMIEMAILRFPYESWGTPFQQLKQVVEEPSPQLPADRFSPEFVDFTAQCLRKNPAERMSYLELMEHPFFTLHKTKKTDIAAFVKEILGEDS

KinomeScan kinase panel [9] = molecular target: T9, KinomeScan kinase panel (Homo sapiens, UniProt O94804); settings: LOK, 10 µM
T9 construct: purchased DiscoveRx (KinomeScan)
T9 sequence (O94804 whole entry): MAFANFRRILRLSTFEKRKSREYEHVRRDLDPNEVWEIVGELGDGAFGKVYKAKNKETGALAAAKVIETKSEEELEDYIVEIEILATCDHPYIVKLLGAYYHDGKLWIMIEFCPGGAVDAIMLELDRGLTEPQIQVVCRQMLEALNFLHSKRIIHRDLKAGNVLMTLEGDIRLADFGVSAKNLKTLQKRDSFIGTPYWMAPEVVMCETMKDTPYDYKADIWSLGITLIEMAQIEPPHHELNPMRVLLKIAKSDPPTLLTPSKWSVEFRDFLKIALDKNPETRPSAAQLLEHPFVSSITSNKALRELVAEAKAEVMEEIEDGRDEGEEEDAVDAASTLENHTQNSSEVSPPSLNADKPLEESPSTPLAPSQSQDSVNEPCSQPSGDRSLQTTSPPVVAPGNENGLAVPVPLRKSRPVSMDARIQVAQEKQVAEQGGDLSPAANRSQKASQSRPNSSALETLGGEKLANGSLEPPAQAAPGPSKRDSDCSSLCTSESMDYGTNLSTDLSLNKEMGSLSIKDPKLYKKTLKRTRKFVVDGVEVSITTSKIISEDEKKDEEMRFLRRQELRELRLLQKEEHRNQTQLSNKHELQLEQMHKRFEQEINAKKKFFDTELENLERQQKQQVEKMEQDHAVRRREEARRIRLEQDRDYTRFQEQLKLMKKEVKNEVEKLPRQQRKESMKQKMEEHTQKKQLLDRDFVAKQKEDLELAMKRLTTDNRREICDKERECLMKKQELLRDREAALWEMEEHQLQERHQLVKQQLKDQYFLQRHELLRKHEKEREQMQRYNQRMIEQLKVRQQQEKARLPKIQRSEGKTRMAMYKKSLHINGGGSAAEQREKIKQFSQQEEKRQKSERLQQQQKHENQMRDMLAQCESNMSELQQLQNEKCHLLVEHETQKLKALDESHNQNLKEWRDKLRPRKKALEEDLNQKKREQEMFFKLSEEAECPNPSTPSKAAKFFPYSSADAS

T3 sequence (Q96RR4 whole entry): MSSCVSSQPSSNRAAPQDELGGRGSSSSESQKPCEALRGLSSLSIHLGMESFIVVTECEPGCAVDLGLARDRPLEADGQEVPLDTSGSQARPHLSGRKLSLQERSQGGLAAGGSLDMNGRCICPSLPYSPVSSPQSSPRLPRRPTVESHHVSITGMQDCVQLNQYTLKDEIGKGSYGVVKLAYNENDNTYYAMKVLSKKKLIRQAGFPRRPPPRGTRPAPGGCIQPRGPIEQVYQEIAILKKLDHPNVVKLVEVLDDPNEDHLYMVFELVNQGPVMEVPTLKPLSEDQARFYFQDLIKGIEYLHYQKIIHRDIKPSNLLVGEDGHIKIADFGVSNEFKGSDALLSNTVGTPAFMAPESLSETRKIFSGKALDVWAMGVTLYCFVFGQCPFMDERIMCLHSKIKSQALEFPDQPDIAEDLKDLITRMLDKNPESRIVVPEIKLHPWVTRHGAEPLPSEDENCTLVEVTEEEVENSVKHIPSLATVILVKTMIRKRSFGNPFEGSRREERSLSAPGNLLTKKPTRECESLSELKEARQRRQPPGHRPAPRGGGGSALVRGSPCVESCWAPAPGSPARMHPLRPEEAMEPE
T5 sequence (Q8NEV4 whole entry): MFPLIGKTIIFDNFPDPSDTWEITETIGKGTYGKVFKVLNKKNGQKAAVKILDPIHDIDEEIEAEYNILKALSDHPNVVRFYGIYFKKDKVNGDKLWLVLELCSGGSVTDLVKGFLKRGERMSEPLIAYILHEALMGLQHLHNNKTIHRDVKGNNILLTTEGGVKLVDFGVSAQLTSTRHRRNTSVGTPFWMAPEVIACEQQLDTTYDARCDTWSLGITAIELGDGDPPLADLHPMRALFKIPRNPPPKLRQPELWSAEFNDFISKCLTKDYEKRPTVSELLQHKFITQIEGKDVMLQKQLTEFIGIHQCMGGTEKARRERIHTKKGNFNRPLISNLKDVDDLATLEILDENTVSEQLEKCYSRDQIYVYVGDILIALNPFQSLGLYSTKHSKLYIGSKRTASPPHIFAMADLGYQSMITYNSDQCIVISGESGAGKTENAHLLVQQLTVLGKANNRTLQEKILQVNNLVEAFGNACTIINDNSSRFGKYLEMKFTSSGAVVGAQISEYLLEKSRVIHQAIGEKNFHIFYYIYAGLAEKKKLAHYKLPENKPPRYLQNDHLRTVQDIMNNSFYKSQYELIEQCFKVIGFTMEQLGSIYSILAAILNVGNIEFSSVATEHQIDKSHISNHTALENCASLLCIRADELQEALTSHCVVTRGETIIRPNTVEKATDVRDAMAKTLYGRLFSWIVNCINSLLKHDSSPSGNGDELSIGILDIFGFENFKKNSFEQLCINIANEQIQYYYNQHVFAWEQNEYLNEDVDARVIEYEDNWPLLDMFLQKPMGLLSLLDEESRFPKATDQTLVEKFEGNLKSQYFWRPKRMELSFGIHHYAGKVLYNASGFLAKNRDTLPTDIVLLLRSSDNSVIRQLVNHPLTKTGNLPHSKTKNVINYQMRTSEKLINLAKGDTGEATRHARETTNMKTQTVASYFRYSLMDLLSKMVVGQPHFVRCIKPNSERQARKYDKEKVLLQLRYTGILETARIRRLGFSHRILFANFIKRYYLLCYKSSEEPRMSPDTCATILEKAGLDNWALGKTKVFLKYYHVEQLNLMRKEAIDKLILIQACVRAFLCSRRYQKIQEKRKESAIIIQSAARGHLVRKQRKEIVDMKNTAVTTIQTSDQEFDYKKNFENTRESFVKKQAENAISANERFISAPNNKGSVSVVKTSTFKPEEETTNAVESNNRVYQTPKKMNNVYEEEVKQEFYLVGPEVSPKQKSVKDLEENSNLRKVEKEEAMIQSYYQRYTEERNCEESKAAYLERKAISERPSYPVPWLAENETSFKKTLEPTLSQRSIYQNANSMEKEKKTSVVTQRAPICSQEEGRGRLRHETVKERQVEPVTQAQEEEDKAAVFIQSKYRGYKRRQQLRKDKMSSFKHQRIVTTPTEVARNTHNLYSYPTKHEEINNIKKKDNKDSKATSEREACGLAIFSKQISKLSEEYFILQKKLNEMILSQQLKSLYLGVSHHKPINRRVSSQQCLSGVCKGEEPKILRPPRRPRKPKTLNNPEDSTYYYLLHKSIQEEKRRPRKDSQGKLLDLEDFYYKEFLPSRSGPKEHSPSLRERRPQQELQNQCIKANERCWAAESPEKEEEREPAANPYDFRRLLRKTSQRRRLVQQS
T6 sequence (Q9HC98 whole entry): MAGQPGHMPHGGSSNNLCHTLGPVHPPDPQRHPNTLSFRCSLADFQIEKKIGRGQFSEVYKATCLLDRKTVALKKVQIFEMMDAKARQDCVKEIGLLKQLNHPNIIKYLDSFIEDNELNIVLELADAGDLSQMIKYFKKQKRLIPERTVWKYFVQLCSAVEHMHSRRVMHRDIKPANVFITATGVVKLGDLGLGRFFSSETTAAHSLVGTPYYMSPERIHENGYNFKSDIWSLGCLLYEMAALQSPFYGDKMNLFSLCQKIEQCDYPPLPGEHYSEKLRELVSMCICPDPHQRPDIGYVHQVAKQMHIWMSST
T4 sequence (P49759 whole entry): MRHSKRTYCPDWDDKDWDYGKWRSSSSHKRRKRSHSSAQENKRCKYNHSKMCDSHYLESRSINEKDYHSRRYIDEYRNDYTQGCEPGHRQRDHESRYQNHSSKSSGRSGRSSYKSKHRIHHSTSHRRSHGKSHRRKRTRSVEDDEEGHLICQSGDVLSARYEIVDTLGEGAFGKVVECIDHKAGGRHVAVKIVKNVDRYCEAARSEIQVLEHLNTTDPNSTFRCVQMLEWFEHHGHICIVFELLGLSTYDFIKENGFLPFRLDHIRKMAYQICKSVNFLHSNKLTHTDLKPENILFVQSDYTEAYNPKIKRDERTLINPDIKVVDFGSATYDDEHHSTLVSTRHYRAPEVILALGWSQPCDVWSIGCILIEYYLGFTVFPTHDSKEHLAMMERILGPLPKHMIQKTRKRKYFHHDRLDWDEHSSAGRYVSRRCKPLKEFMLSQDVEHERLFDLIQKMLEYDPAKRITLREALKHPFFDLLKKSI

| Compound | remaining binding at 10 µM (KinomeScan kinase panel [1]; ABL1(M351T)-phosphorylated) | remaining binding at 10 µM (KinomeScan kinase panel [2]) | remaining binding at 10 µM (KinomeScan kinase panel [3]) | remaining binding at 10 µM (KinomeScan kinase panel [4]) | remaining binding at 10 µM (KinomeScan kinase panel [5]) | remaining binding at 10 µM (KinomeScan kinase panel [6]) | remaining binding at 10 µM (KinomeScan kinase panel [7]) | remaining binding at 10 µM (KinomeScan kinase panel [8]) | score (%) (KinomeScan kinase panel [9]) | remaining binding at 10 µM (KinomeScan kinase panel [1]; ABL1(M351T)) |
| --- | --- | --- | --- | --- | --- | --- | --- | --- | --- | --- |
| CCN1CCN(Cc2ccc(NC(=O)c3ccc(C)c(C#Cc4cccnc4)c3)cc2C(F)(F)F)CC1 [XMD15-44] | 2.6% | 84% | 7.8% | 3.9% | 3.2% | 90% | 41% | > 30% | 0% | – |
| CCN1CCN(Cc2ccc(NC(=O)c3ccc(C)c(/C=C/c4cnc5[nH]ccc5c4Cl)c3)cc2C(F)(F)F)CC1 [HG-6-63-01, (E)-3-(2-(4-chloro-1H-pyrrolo[2,3-b]pyridin-5-yl)vinyl)-N-(4-((4-ethylpiperazin-1-yl)methyl)-3-(trifluoromethyl)phenyl)-4-methylbenzamide] | – | > 30% | > 30% | 27% | > 30% | > 30% | 28% | > 30% | 0% | 0.1% |
| CCN1CCN(Cc2ccc(NC(=O)c3ccc(C)c(NC(=O)c4cncc(-c5cccs5)c4)c3)cc2C(F)(F)F)CC1 [ALW-II-41-27] | – | > 30% | > 30% | 1.1% | 17% | > 30% | > 30% | > 30% | 0.05% | 0.55% |
